The record followed here is US10468120B2, “Method of generating a hyperpigmentation condition gene expression signature” (The Procter & Gamble Company, priority 2012, dated 2019).

The test system of assay [1] is tert-Keratinocyte (tKC) cells. Briefly: C-map query with the tone composite benchmark signature (Niacinamide, Hexamidine, Sepiwhite, NAG). It is filed as cell-based, human. Particulars: composite signature of Example 3. On the procedure:
Individual experiments (referred to as batches) generally comprise 30 to 96 samples analyzed using Affymetrix GeneChip® technology platforms, containing 6 replicates of the vehicle control (e.g., DSMO), 2 replicate samples of a positive control that gives a strong reproducible effect in the cell type used, and samples of the test material/perturbagen. Replication of the test material is done in separate batches due to batch effects. In vitro testing was performed in 6-well plates to provide sufficient RNA for GeneChip® analysis (2-4 μg total RNA yield/well).
Human telomerized keratinocytes (tKC) were obtained from the University of Texas, Southwestern Medical Center, Dallas, Tex. tKC cells were grown in EpiLife® media with 1× Human Keratinocyte Growth Supplement (Invitrogen, Carlsbad, Calif.) on collagen I coated cell culture flasks and plates (Becton Dickinson, Franklin Lakes, N.J.). Keratinocytes were seeded into 6-well plates at 20,000 cells/cm^2 24 hours before chemical exposure. Human skin fibroblasts (BJ cell line from ATCC, Manassas, Va.) were grown in Eagle's Minimal Essential Medium (ATCC) supplemented with 10% fetal bovine serum (HyClone, Logan, Utah) in normal cell culture flasks and plates (Corning, Lowell, Mass.). BJ fibroblasts were seeded into 6-well plates at 12,000 cells/cm^2 24 hours before chemical exposure. […]

For assay [2], the system named is Chinese females, 25-55 years old with hyperpigmented spots. Briefly: 9-week randomized, double-blind, vehicle-controlled, split-face tone benefit study. Type of assay: in vivo, human. Particulars: 0.05% in SC-99 vehicle, 2x a day, vs vehicle. The source says: This Example provides evidence of the advantages of using composite signatures and illustrates clinical affirmation of the C-map model for predicting efficacy of skin-lightening agents. This Example supports embodiments related to composite signatures (as described at the end of Example 3). An illustrative “Skin Tone” Signature developed from a genomics study using a composite skin-lightening benchmark agent signature is derived from Niacinamide, Hexamidine, Sepiwhite, and NAG. The signature is used to query C-map and generate a list of potential skin-lightening agents. A top hit, Chlorhexidine Diactate (CD) is entered into clinical testing for confirmation of efficacy. The control for clinical efficacy is a 5% Niacinamide+1% Sepiwhite formulation in the control vehicle.
Primary endpoints are changes in color spot area fraction (image analysis) and melanin spot area fraction (NC2) from baseline. Secondary endpoints are changes from baseline in L*a*b (color image analysis), mean melanin gray scale (NC2), and melanin evenness (NC2). Texture area fraction and pore area fraction are also evaluated to explore impact on other aspects relating to overall skin tone. […] Statistically significant superiority to the high efficacy benchmark skin active agent to vehicle performance is the clinical success criteria.
Study Design: The experimental protocol included a 9-week (1-week preconditioning & 8-week treatment), randomized, double-blind, round robin, vehicle-controlled, split-face tone benefit study. The subject population included 330 Chinese females, 25-55 years old with hyperpigmented spots. 318 subjects completed the entire study. […] Olay Complete SPF 15 UV Moisturizing Lotion is concomitantly used during pre-conditioning and treatment. 0.5 g each test product per half-face (forehead to jaw line; ˜4 mg/cm^2) is dosed 2× a day (morning/evening). Color SAF and treatment area, Melanin SAF, gray scale, evenness by NC2, and additional measurement of Fine Lines and Wrinkle and Texture are by REAL 3.01A. Data collection points include baseline, and ends of weeks 4, 6 and 8. The tested hypothesis is that there is no difference in clinical endpoint versus the benchmark composition treatment. Study site is Kuntai Clinical Center, Beijing, China and study time frame is February 2010 (pre-conditioning) to April 2010.

SMILES strings stand for the structures.

Turning to `CC(=O)O.CC(=O)O.NC(=N\CCCCCC/N=C(N)/N=C(\N)Nc1ccc(Cl)cc1)/N=C(\N)Nc1ccc(Cl)cc1` [CD, Chlorhexidine Diacetate], in assay [1], the “connectivity to the tone composite benchmark signature query” value is recorded as “top connectivity hit”. Also, in assay [2] (week 8), the Basal skin tone result is recorded as “demonstrated superiority”, the Pore area fraction result was “superior efficacy” and the Texture area fraction result is “superior efficacy”. Besides, in assay [2] (weeks 6 and 8), the “NC2 Melanin evenness test” value is given as “superiority to the vehicle” and the “spot area fraction NC2 test” value is reported as “significantly reduced fraction when compared to the vehicle”.
